The text below walks through data of patent US7241785B2, “Five-membered heterocyclic alkanoic acid derivative” (Takeda Pharmaceutical Company Limited, priority 2001, dated 2007).

Series [1] has as its system KKA^y mice. As to the kind of experiment: Hypoglycemic and hypolipidemic (hypotriglyceridemic) actions in mice. It counts as in vivo. The settings on record: Mus musculus, po, 96 h, 0.01% in powdery diet, four days.
For series [2], the system named is KKA^y mice. As to the kind of experiment: Total cholesterol lowering action and plasma anti-arteriosclerosis index-enhancing action in mice. The settings on record: Mus musculus, po, 96 h, 0.01% in powdery diet, four days. It counts as in vivo. On the procedure: Total Cholesterol Lowering Action and Plasma Anti-Arteriosclerosis Index-Enhancing Action in Mice
Test compounds were mixed in a powdery diet (CE-2, Japan Clea concentration of 0.01%, and freely given to KKA^y mice (11 to 12 weeks old, 5 mice per group), a model of type 2 diabetes mellitus, for four days. During this period, water was given freely. Blood was sampled from orbital venous plexus, and components in plasma separated from the blood were determined. Total cholesterol levels were determined using L type Wako Cholesterol (Wako Pure Chemical Industries, Ltd.). Precipitation reagent for HDL cholesterol was added to a part of the plasma to precipitate non-HDL lipoprotein, and cholesterol (HDL cholesterol) in the resulting supernatant was determined. The plasma anti-arteriosclerosis index [(HDL cholesterol/total cholesterol)×100] was calculated using these cholesterol levels.
In the Table, “total cholesterol lowering action (%)” represents a percent reduction (%) of the total cholesterol level in the treatment group when the total cholesterol level in the non-treatment group is taken as 100%. In addition, “plasma anti-arteriosclerosis index-enhancing action (%)” represents a percent increase (%) of the plasma anti-arteriosclerosis index in the treatment group when the plasma anti-arteriosclerosis index in the non-treatment group is taken as 100%.

The target in series [3] is T1, PPARδ-RXRα heterodimer (Homo sapiens, UniProt Q03181).
T1 sequence (Q03181 1-441): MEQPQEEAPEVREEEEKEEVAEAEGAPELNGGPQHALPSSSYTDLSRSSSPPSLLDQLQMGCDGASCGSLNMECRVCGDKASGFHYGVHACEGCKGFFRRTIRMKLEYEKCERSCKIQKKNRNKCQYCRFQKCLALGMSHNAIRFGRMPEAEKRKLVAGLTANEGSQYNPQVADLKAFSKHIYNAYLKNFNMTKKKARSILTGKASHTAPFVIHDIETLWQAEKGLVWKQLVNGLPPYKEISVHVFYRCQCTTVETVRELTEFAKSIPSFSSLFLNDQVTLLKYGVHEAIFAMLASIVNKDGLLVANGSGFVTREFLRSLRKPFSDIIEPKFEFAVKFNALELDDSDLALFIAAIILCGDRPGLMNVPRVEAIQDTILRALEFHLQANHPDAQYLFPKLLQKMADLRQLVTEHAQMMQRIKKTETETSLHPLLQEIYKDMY
T1 sequence (P19793 1-462 partner): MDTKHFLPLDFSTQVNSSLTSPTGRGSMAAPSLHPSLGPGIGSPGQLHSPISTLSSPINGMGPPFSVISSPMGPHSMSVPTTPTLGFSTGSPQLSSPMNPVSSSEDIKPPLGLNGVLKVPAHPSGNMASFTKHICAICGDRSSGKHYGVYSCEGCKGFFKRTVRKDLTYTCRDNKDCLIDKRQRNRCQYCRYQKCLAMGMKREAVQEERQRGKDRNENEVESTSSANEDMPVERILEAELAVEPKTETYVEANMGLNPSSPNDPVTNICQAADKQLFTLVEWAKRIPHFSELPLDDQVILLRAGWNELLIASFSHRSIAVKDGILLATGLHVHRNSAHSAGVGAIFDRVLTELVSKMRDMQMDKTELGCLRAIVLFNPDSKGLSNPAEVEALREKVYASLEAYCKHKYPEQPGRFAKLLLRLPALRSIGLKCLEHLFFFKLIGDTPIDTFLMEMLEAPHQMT
Nature of the series: PPARδ-RXRα heterodimer ligand activity (luciferase reporter, PPARδ:RXRα:4ERPP/CHO-K1 cells). It counts as cell-based. The arrangement: expressed in transfected cells. The settings on record: concentration for 50% of maximum fold induction of luciferase, 48 hrs. On the procedure:
(§1) PPARδ-RXRα Heterodimer Ligand Activity
PPARδ:RXRα:4ERPP/CHO-K1 cells obtained in Reference Example 5a were cultured in HAM F12 medium (produced by NISSUI SEIYAKU) containing 10% fetal bovine serum (produced by Life Technologies, Inc., USA) and then seeded in a 96-well white plate (produced by Corning Costar Corporation, USA) at the density of 2×10^4 cells/well, and cultured in a CO2 gas incubator at 37° C. overnight.
After washing the 96 well white plate with PBS (Phosphate-buffered saline), 90 μl of HAM F12 medium containing 0.1% fatty acid-free bovine serum albumin (BSA) and 10 μl of test compound were added, and the cells were cultured in a CO2 gas incubator at 37° C. for 48 hrs. After removing the medium, 40 μl of PicaGene 7.5 (produced by Wako Pure Chemical Industries, Ltd.) was added. After stirring, the luciferase activity was determined using Lumistar (produced by BMG Labtechnologies GmbH, Germany).
The fold induction was calculated from the luciferase activity of each test compound when the luciferase activity in the non-treatment group is taken as 1. The values of the test compound concentration and the fold induction were analyzed using PRISM 2.01 (produced by GraphPad Software Inc. USA) to calculate the EC50 values, the effective concentration of a test compound for 50% of the maximum fold induction. […]
Background: In a reporter assay the amount or activity of a reporter protein is the signal.

Series [4] deals with T1, PPARδ-RXRα heterodimer. As to the kind of experiment: PPARδ-RXRα heterodimer ligand activity (luciferase reporter, transfected COS-1 cells). It counts as cell-based. The arrangement: expressed in transfected cells; host or cells: COS-1 (transient, lipofectamine). The settings on record: concentration for 50% of maximum fold induction of luciferase, 48 hrs. As to the method: as §1
The COS-1 cells obtained in Reference Example 9a were recovered, suspended in DMEM medium containing 0.1% fatty acid-free bovine serum albumin (BSA)(manufactured by Wako Pure Chemical Industries, Ltd.) (Nikken Biomedical Laboratory) and seeded in each well of a 96-well white plate (manufactured by Corning Costar Corporation, USA) at the density of 2×10^4 cells/well ([…]). Then, the test Compound ([…]) was added and the cells were cultured at 37° C., 5% CO2 for 48 hrs. The medium was removed from the 96-well white plate and PicaGine LT7.5 ([…], Wako Pure Chemical Industries) was added. After stirring, luciferase activity was measured using 1420 ARVO Multilabel Counter (Wallac)).
The fold induction was calculated from the luciferase activity of the test compound when the luciferase activity of the non-treatment group is taken as 1. The values of the test compound concentration and the fold induction were analyzed using PRISM 2.01 (produced by GraphPad Software Inc. USA) to calculate the EC50 values, the effective concentration of a test compound for 50% of the maximum fold induction.
Introduction of Plasmid and Reporter Plasmid for Expression of Human PPARδ, RXRα into COS-1 Cell […]

The melting point is the temperature of the solid-liquid transition. What is called EC50 is the concentration needed to bring the measured effect to its halfway point. High values mean a less potent agent, low ones a more potent agent. The compound `Cc1oc(-c2ccccc2)nc1COc1ccc(Sc2nc(-c3ccccc3)c(CCC(=O)O)s2)cc1` [Example 12, 3-[2-[4-(5-methyl-2-phenyl-4-oxazolylmethoxy)phenylthio]-4-phenyl-5-thiazolyl]propionic acid] displayed a melting point of 121 to 122 °C. In addition, the inhibition in vivo at 0.01 % in diet in series [1] (percent reduction of blood glucose level vs non-treatment group (100%), read-out: Hypoglycemic action (%)) was 52%. The inhibition in vivo at 0.01 % in diet in series [1] (percent reduction of blood triglyceride level vs non-treatment group (100%), read-out: Hypolipidemic action (%)) is 56%. In addition, the change in vivo at 0.01 % in diet in series [2] (percent increase of index [(HDL cholesterol/total cholesterol)×100] vs non-treatment group (100%)) was determined as 15%. For the same compound, the inhibition in vivo at 0.01 % in diet in series [2] (percent reduction of total cholesterol level vs non-treatment group (100%)) amounted to 22%. In series [3], this compound yielded an EC50 of 670 nM.

`Cc1nc(SCc2cccc(OCc3nc(-c4ccccc4)oc3C)c2)sc1CC(=O)O` [Example 60, [4-methyl-2-[3-(5-methyl-2-phenyl-4-oxazolylmethoxy)benzylthio]thiazol-5-yl]acetic acid] returned an EC50 in series [4] of 260 nM.

In series [4], `Cc1nc(SCc2ccc(OCc3nc(-c4ccccc4)oc3C)cc2)sc1CC(=O)O` [Example 58, [4-methyl-2-[4-(5-methyl-2-phenyl-4-oxazolylmethoxy)benzylthio]thiazol-5-yl]acetic acid] displayed an EC50 of 680 nM. This EC50 is about 2.6-fold higher than that of the compound before.
